Series [1] concerns Escherichia coli. Kind of series: microbe, parasite or virus in culture. In kind it is cell-based. To be noted: E. coli KLE701 (ΔtolC::tet); source data, individual replicates.
Series [2] has as its system HeLa cells. Nature of the series: Mammalian cell cytotoxicity (CC50). In kind it is cell-based, human. To be noted: one value per replicate.
The nature of series [3]: Liver microsome stability, murine. In kind it is in vitro ADME, mouse. Particulars: murine liver microsomes; for Average MLMS t½: average of replicates; for MLMS t½: individual replicates. The procedure, abridged: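 Compounds incubated with liver microsomes plus NADPH over 30 min; parent remaining quantified by reverse-phase LC/MS. Half-life from linear regression over several time points.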
For orientation: Microsomes from liver hold many membrane-bound enzymes, among them those of drug oxidation.

For series [4], the system named is trans-translation. Kind of series: microbe, parasite or virus in culture. In kind it is cell-based, Escherichia coli. Particulars: for IC50: Eco Luc reporter, one value per replicate, read-out: IC50; for Luminescence readout (Envision plate reader) / Luminescence, background subtracted (DMSO control): per replicate. The method, then:
To verify that MBX-4132 retains activity as an inhibitor of trans-translation, we measured its dose-dependent activity against the non-stop luciferase reporter assay strain E. coli SB75 ΔtolC::kan (pluc-trpAt) essentially as described, with modifications. Briefly, serial 1.5-fold dilutions of MBX-4132 in DMSO were transferred to 96-well assay plates (Costar 3195), followed by the addition of 50 µl of an overnight culture of SB75 ΔtolC::kan (pluc-trpAt) that had been diluted to a final OD600 of 0.4 with LB media supplemented with 100 µg ampicillin/ml and 1 mM IPTG. […] The assay plates were incubated at room temperature for 2 h, and 50 µl of BrightGlo (Promega) bioluminescence reagent was added to each well. After 10 min incubation, bioluminescence intensity was measured using an Envision multi-label plate reader (Perkin Elmer). Each assay comprised three technical replicates, and the experiment was repeated three times. The fold induction for each MBX-4132 treated sample as compared to the DMSO-only sample was calculated for each technical replicate, and the average and standard deviation of the three technical was calculated. The IC50 was determined using a 4-parameter nonlinear curve fitting algorithm (GraphPad Prism).

Series [5] in a line: Aqueous solubility (nephelometric). In kind it is physicochemical. To be noted: for Solubility: single replicates.
Series [6] relates to Neisseria gonorrhoeae. Kind of series: MIC, microbroth dilution, G77L medium. In kind it is cell-based. To be noted: Neisseria gonorrhoeae ATCC 49226; source data, individual replicates. (In general: Dilution methods test growth across graded concentrations, often in twofold steps.)
For series [7], the system named is HeLa cells. Nature of the series: Mammalian cell cytotoxicity (CC50). The series is classed as cell-based, human. To be noted: HeLa, replicates. The protocol: The half maximal cytotoxic concentration (CC50) of each compound against HeLa cells (ATCC CCL-2) was measured as previously described. […] The mean values for each biological replicate were averaged, and the CC50 was determined using a 4-parameter nonlinear curve fitting algorithm (GraphPad Prism). The average of the CC50s from two biological replicates was calculated and reported.

This note sets out measurements from publication PMC7979765, “trans-Translation inhibitors bind to a novel site on the ribosome and clear Neisseria gonorrhoeae in vivo” (Nature Communications, 2021).

≈ marks a conversion by molar mass, not a printed value. Where “and” joins values, the source holds several entries; their conditions need not be identical. Identical values can stand only once. A value given as a limit tells only on which side of the number the result lay.

In the case of `O=C(Nc1nnc(C2CCCCC2)o1)c1ccc(Cl)cc1` [MBX-4370], the MIC was 0.4778 µg/mL and 0.9555 µg/mL in series [1]; 0.2388 µg/mL and 0.1196 µg/mL in series [6]. For the same compound, the CC50 (commonly the concentration giving 50% cytotoxicity) in series [2] is 18.1 µM and 19.4 µM and 21.8 µM and 14.3 µM and 14.5 µM and 13.7 µM. Moreover, in series [3], the “Average MLMS t½” value is listed as less than 5 min. In addition, in series [3], the “MLMS t½” value was less than 5 min. Further, the concentration for half-maximal inhibition (IC50) (usually the midpoint of a concentration-inhibition curve) in series [4] was 0.12 µM and 0.122 µM and 0.145 µM. In addition, the “Luminescence readout (Envision plate reader)” value was 496280 and 436160 and 442680 in series [4] ([Compound] 0.046875 µM); 452080 and 467160 and 463360 in series [4] ([Compound] 0.0625 µM); 467480 and 440040 and 454600 in series [4] ([Compound] 0.09375 µM); 460600 and 443360 and 458920 in series [4] ([Compound] 0.125 µM); 449320 and 468280 and 463760 in series [4] ([Compound] 0.1875 µM); 454000 and 469520 and 468760 in series [4] ([Compound] 0.25 µM). Moreover, the “Luminescence readout (Envision plate reader)” value is 472720 and 482560 and 460640 in series [4] ([Compound] 0.375 µM); 517120 and 524880 and 509520 in series [4] ([Compound] 0.5 µM); 547920 and 542080 and 527800 in series [4] ([Compound] 0.75 µM); 530760 and 535720 and 544960 in series [4] ([Compound] 1 µM); 476080 and 424480 and 540520 in series [4] ([Compound] 1.5 µM). Moreover, the “Luminescence, background subtracted (DMSO control)” value in series [4] ([Compound] 0.0625 µM) was 23120 and 8920 and 25040; in series [4] ([Compound] 0.1875 µM), 20360 and 10040 and 25440; in series [4] ([Compound] 0.25 µM), 25040 and 11280 and 30440; in series [4] ([Compound] 0.375 µM), 43760 and 24320 and 22320; in series [4] ([Compound] 0.5 µM), 88160 and 66640 and 71200; in series [4] ([Compound] 0.75 µM) it was 118960 and 83840 and 89480. Besides, the “Luminescence, background subtracted (DMSO control)” value in series [4] ([Compound] 1 µM) was 101800 and 77480 and 106640. In addition, the “Average solubility” value in series [5] is given as 50 µM. Further, in series [5], the Solubility – broadly, the concentration that dissolves in the medium under given conditions – came out at 50 µM (≈ 15.3 µg/mL). Moreover, the “NORMALIZED DATA (Fraction DMSO Control)” value in series [7] ([CMPD] 0.78125 µM) was 1.07 Fraction DMSO Control and 1.036 Fraction DMSO Control and 1.021 Fraction DMSO Control and 1.042 Fraction DMSO Control and 1.024 Fraction DMSO Control and 0.9956 Fraction DMSO Control; in series [7] ([CMPD] 1.5625 µM), 1.061 Fraction DMSO Control and 1.02 Fraction DMSO Control and 0.9814 Fraction DMSO Control and 1.082 Fraction DMSO Control and 1.03 Fraction DMSO Control and 0.9471 Fraction DMSO Control; in series [7] ([CMPD] 3.125 µM), 1.05 Fraction DMSO Control and 1.039 Fraction DMSO Control and 0.9574 Fraction DMSO Control and 1.045 Fraction DMSO Control and 1.018 Fraction DMSO Control and 0.9296 Fraction DMSO Control; in series [7] ([CMPD] 6.25 µM), 1.047 Fraction DMSO Control and 1.02 Fraction DMSO Control and 0.985 Fraction DMSO Control and 1.025 Fraction DMSO Control and 0.9985 Fraction DMSO Control and 0.9262 Fraction DMSO Control; in series [7] ([CMPD] 12.5 µM) it was 0.7981 Fraction DMSO Control and 0.8325 Fraction DMSO Control and 0.8129 Fraction DMSO Control and 0.8056 Fraction DMSO Control and 0.7525 Fraction DMSO Control and 0.7321 Fraction DMSO Control; in series [7] ([CMPD] 25 µM), 0.4723 Fraction DMSO Control and 0.5367 Fraction DMSO Control and 0.6164 Fraction DMSO Control and 0.4594 Fraction DMSO Control and 0.5425 Fraction DMSO Control and 0.5809 Fraction DMSO Control. The “NORMALIZED DATA (Fraction DMSO Control)” value is 0.2465 Fraction DMSO Control and 0.3246 Fraction DMSO Control and 0.4191 Fraction DMSO Control and 0.3946 Fraction DMSO Control and 0.4088 Fraction DMSO Control and 0.4903 Fraction DMSO Control in series [7] ([CMPD] 50 µM); 0.4495 Fraction DMSO Control and 0.5491 Fraction DMSO Control and 0.5315 Fraction DMSO Control and 0.5237 Fraction DMSO Control and 0.6389 Fraction DMSO Control and 0.5972 Fraction DMSO Control in series [7] ([CMPD] 100 µM).

As for `Fc1ccc(-c2nnc(NCc3ccc(Cl)cc3)o2)cc1` [MBX-3776], the MIC result in series [1] and in series [6] was “>=30.372 µg/ml” in each case. Also, the CC50 in series [2] was not below 100 µM. In addition, in series [3], the “Average MLMS t½” value came out at 5.3 min. In series [3], the “MLMS t½” value is 4.3 min and 6.3 min. For the same compound, the IC50 in series [4] was not below 25 µM. Besides, the “Average solubility” value in series [5] is reported as 25 µM. Further, the Solubility in series [5] worked out at 25 µM (≈ 7.59 µg/mL). For the same compound, the “NORMALIZED DATA (Fraction DMSO Control)” value in series [7] ([CMPD] 0.78125 µM) is 0.9425 Fraction DMSO Control and 0.9291 Fraction DMSO Control and 1.002 Fraction DMSO Control and 0.9674 Fraction DMSO Control and 0.9349 Fraction DMSO Control and 0.9583 Fraction DMSO Control; in series [7] ([CMPD] 1.5625 µM), 0.9887 Fraction DMSO Control and 1.033 Fraction DMSO Control and 1.0461 Fraction DMSO Control and 0.981 Fraction DMSO Control and 0.9949 Fraction DMSO Control and 1.019 Fraction DMSO Control; in series [7] ([CMPD] 3.125 µM), 0.9887 Fraction DMSO Control and 0.9933 Fraction DMSO Control and 1.016 Fraction DMSO Control and 0.9805 Fraction DMSO Control and 0.9905 Fraction DMSO Control and 1.024 Fraction DMSO Control; in series [7] ([CMPD] 6.25 µM), 0.964 Fraction DMSO Control and 0.9895 Fraction DMSO Control and 1.009 Fraction DMSO Control and 1.011 Fraction DMSO Control and 0.9848 Fraction DMSO Control and 0.9995 Fraction DMSO Control; in series [7] ([CMPD] 12.5 µM) it was 0.9916 Fraction DMSO Control and 1.003 Fraction DMSO Control and 0.985 Fraction DMSO Control and 0.9785 Fraction DMSO Control and 0.9711 Fraction DMSO Control and 0.9946 Fraction DMSO Control; in series [7] ([CMPD] 25 µM) it was 0.8342 Fraction DMSO Control and 0.8793 Fraction DMSO Control and 0.8796 Fraction DMSO Control and 0.8381 Fraction DMSO Control and 0.8221 Fraction DMSO Control and 0.8915 Fraction DMSO Control. The “NORMALIZED DATA (Fraction DMSO Control)” value in series [7] ([CMPD] 50 µM) was 0.8682 Fraction DMSO Control and 0.9316 Fraction DMSO Control and 0.8851 Fraction DMSO Control and 0.8718 Fraction DMSO Control and 0.8862 Fraction DMSO Control and 0.9022 Fraction DMSO Control; in series [7] ([CMPD] 100 µM) it was 0.8662 Fraction DMSO Control and 0.9027 Fraction DMSO Control and 0.8885 Fraction DMSO Control and 0.8759 Fraction DMSO Control and 0.8519 Fraction DMSO Control and 0.9047 Fraction DMSO Control.

With `Cc1ccc(S(=O)(=O)Nc2nnc(-c3ccc(F)cc3)o2)cc1` [MBX-4063], the MIC entry in series [1] was “>=33.334 µg/ml”; in series [6], “>=33.3 µg/ml”. In series [2], this compound returned a CC50 not below 100 µM. For the same compound, in series [3], the “Average MLMS t½” value is reported as less than 5 min. Also, the “MLMS t½” value in series [3] was less than 5 min. In addition, the IC50 in series [4] was not below 25 µM. In addition, the “Average solubility” value in series [5] turned out to be 100 µM. Further, in series [5], the Solubility is given as 100 µM (≈ 33.3 µg/mL). The “NORMALIZED DATA (Fraction DMSO Control)” value was 1.183 Fraction DMSO Control and 0.9487 Fraction DMSO Control and 1.005 Fraction DMSO Control in series [7] ([CMPD] 0.78125 µM); 1.094 Fraction DMSO Control and 0.958 Fraction DMSO Control and 0.97 Fraction DMSO Control in series [7] ([CMPD] 1.5625 µM); 1.091 Fraction DMSO Control and 0.9572 Fraction DMSO Control and 1.016 Fraction DMSO Control in series [7] ([CMPD] 3.125 µM); 1.076 Fraction DMSO Control and 0.9091 Fraction DMSO Control and 0.9832 Fraction DMSO Control in series [7] ([CMPD] 6.25 µM); 1.0577 Fraction DMSO Control and 0.9473 Fraction DMSO Control and 0.9636 Fraction DMSO Control in series [7] ([CMPD] 12.5 µM); 1.026 Fraction DMSO Control and 0.9338 Fraction DMSO Control and 0.9374 Fraction DMSO Control in series [7] ([CMPD] 25 µM). The “NORMALIZED DATA (Fraction DMSO Control)” value is 1.123 Fraction DMSO Control and 0.9526 Fraction DMSO Control and 0.9567 Fraction DMSO Control in series [7] ([CMPD] 50 µM); 1.06 Fraction DMSO Control and 0.9108 Fraction DMSO Control and 0.964 Fraction DMSO Control in series [7] ([CMPD] 100 µM).
